Read-outs that look alike come from different tables or passages of the source.
Columns and labels:
[1] = Shell stability on exposure to aqueous fill composition (half-shell integrity test, H.S.I.T.); type: physicochemical; conditions: for content in fill composition for an HSIT rating of at least 3: PVP and water fill, lipophilic fill-grade CARDINAL SGC
Description: The same tests were performed on gelatin capsules obtained from CARDINAL HEALTH.

[2] = H.S.I.T. on starch capsule; type: physicochemical; conditions: for content in fill composition for an HSIT rating of at least 3: SAE-CD, PVP and water fill, VEGAGEL hard shell capsule
Excerpt: FIG. 3 depicts a chart of the relationship between concentration of SBE cyclodextrin and H.S.I.T. (HALF-SHELL integrity test) rating for HGC (hard gelatin capsule From […]), HGS (hard gelatin capsule from SHIONOGI), HPC (hard hydroxypropyl methylcellulose shell from […]), and HPS (hard hydroxypropyl methylcellulose shell from SHIONOGI), and SSS (soft starch shell […]). The stability obtained was dependent upon the composition of the capsule gel.
FIGS. 10a-10i depict ternary graphs correlating the concentration of SAE-CD, water and PVP in a fill composition to the H.S.I.T. rating of a soft shell capsule exposed to the fill composition. Aqueous fill solutions comprising differing amounts of PVP, SAE-CD and water were prepared. The stability tests were conducted as described below. The capsules described herein were used: SHIONOGI HGC (hard gelatin capsule) (FIG. 10A), […] HPMC hard shell capsule (FIG. 10b), SHIONOGI HPMC hard shell capsule (FIG. 10C), […] HGC (FIG. 10D), VEGAGEL hard shell capsule (FIG. 10E), hydrophilic fill-grade CARDINAL SGC (soft gelatin capsule) (FIG. 10f), lipophilic fill-grade CARDINAL SGC (FIG. 10g), hydrophilic fill-grade BANNER SGC (FIG. 10h), and lipophilic fill-grade BANNER SGC (FIG. 10i). No other shell-stabilizing material(s) was (were) included in the fill compositions evaluated. The results varied according to the capsule used. Stabilized aqueous fill composition-containing capsule formulations can be achieved with each capsule if one or more of the following fill compositions detailed below are used. • 1. […]

[3] = Hard shell capsule stability in aqueous SBE-CD solutions; type: physicochemical; conditions: SAE-CD, PVP and water fill; CAPSUGEL HGC
[4] = Shell stability on exposure to aqueous fill composition (half-shell integrity test, H.S.I.T.); conditions: for content in fill composition for an HSIT rating of at least 3: PVP and water fill, lipophilic fill-grade BANNER SGC
Description: A study was conducted to determine whether or not complexation of a drug to the SAE-CD alters the ability of the SAE-CD to stabilize the capsule shell against dissolution, erosion, swelling or degradation caused by water in the fill composition enclosed within the capsule shell. Banner's hydrophilic, HFB, and lipophilic, LFB, air fill size 35 oval gelatin capsules were used in this study, which was performed as described below. […] The SAE-CD was slowly added to the water while it was stirring and on a hot plate. Agitation continued until all the SAE-CD dissolved. The SAE-CD was divided by weighing in equal amounts into nine vials (one for each drug). […] The amount of drug added produced a composition that contained a normal dose of drug in 1 gram. The vials were agitated and heated until a solution was obtained or the active was uniformly suspended. […]
Method A: Half-Shell integrity Test (H.S.I.T.)
In a closed container, a portion of a capsule shell is exposed to an aqueous fill composition comprising a known amount of derivatized cyclodextrin, water and optionally one or more other excipients. Observation of changes, or lack thereof, on the exposed portion's size, appearance, shape, dissolution, erosion, degradation, hardness, and/or translucence are recorded periodically over time. A rating scale is used to quantify the overall performance of the capsule portion during the test.

[5] = Hard shell capsule stability in aqueous SBE-CD solutions; type: physicochemical; conditions: for failure time: vcap, monitoring discontinued after fourteen days; for content in fill composition for an HSIT rating of at least 3: SAE-CD, PVP and water fill, CAPSUGEL HPMC hard shell capsule
Description: Two types of hard shell capsules obtained from […] were evaluated. A conventional hard gelatin capsule (HCAP) and a hard HPMC (hydroxypropyl methylcellulose) capsule (VCAP) were evaluated under identical conditions using aqueous solutions differing in the concentration of SBE-CD (sulfobutyl ether cyclodextrin).
In the absence of SBE or another shell-stabilizing material, these shell materials were unstable to erosion, dissolution, swelling and degradation by water. Under the conditions of the assay, SBE cyclodextrin was able to stabilize the VCAP shells for ≧14 days even at concentrations of ≧30% wt. of the fill composition. In this assay, monitoring was discontinued after fourteen days.

[6] = Shell stability on exposure to aqueous fill composition (half-shell integrity test, H.S.I.T.); type: physicochemical; conditions: SAE-CD, PVP and water fill; hydrophilic fill-grade CARDINAL SGC
[7] = 40% wt. cyclodextrin derivative in water, LFC
[8] = 50% wt. cyclodextrin derivative in water, LFC
[9] = 55% wt. cyclodextrin derivative in water, LFC
[10] = 60% wt. cyclodextrin derivative in water, LFC
[11] = 40% wt. cyclodextrin derivative in water, LFB
[12] = 50% wt. cyclodextrin derivative in water, LFB
[13] = 55% wt. cyclodextrin derivative in water, LFB
[14] = 60% wt. cyclodextrin derivative in water, LFB

What does the source list for sulfobutyl ether cyclodextrin [SAE-CD]?
content in fill composition for a stabilized capsule formulation [1]: ≧18%; Increase in shell size [1, 7]: >3 × original; Observations [1, 7]: shape intact; Time for failure [1, 7]: 4 days; Increase in shell size [1, 8]: 2 × original; Observations [1, 8]: deformed; Time for failure [1, 8]: 7 days; Increase in shell size [1, 9]: Slightly enlarged; Observations [1, 9]: No deformities; Time for failure [1, 9]: ≧14 days; Increase in shell size [1, 10]: no change; Observations [1, 10]: no change; Time for failure [1, 10]: >21 days; content in fill composition for an HSIT rating of at least 3 ([1]; SAE-CD): ≧6%; content in fill composition for an HSIT rating of at least 3 [2]: ≧6%; stability provided to capsules ([2]; SBE concentration of about ≧30% wt., soft starch capsules, FIG. 3): at least a one-week stability; content in fill composition for an HSIT rating of at least 3 [3]: ≧24%; content in fill composition for a stabilized capsule formulation [4]: ≧18%; Increase in shell size [4, 11]: 2.5× × original; Observations [4, 11]: shape intact; Time for failure [4, 11]: 3 days; Increase in shell size [4, 12]: 2.5 × original; Observations [4, 12]: Deformed; Time for failure [4, 12]: 7 days; Increase in shell size [4, 13]: 2 × original; Observations [4, 13]: Deformed; Time for failure [4, 13]: 10 days; Increase in shell size [4, 14]: no change in length; Observations [4, 14]: Slight; Time for failure [4, 14]: ≧21 days; content in fill composition for an HSIT rating of at least 3 ([4]; SAE-CD): ≧6%; failure time ([5]; 30% SBE solution): >14 days; failure time ([5]; 40% SBE solution): >14 days; failure time ([5]; 50% SBE solution): >14 days; failure time ([5]; 60% SBE solution): >14 days; content in fill composition for an HSIT rating of at least 3 [5]: ≧6%; time VCAP shells were stabilized ([5]; concentrations of ≧30% wt. of the fill composition): ≥ 14 days; content in fill composition for an HSIT rating of at least 3 [6]: ≧6%

With O [Water] as the molecule, how does the “content in fill composition for a stabilized capsule formulation” value ([1]; SAE-CD, PEG and water fill, LFC) read?
The value was “≦48%”.

What about the “content in fill composition for an HSIT rating of at least 3” value (shortened to “content in fill composition … at least 3”) ([1]; SAE-CD) of the same molecule?
The value was “≦49%”.

What about the “content in fill composition … at least 3” value [2] of the same molecule?
The value was “≦64%”.

What about the “content in fill composition … at least 3” value [3] of the same molecule?
The value was “≦36%”.

What about the “content in fill composition for a stabilized capsule formulation” value ([4]; SAE-CD, PEG and water fill, LFB) of the same molecule?
The value was “≦50%”.

And the “content in fill composition … at least 3” value ([4]; SAE-CD)?
Its value is “≦54%”.

And the “content in fill composition … at least 3” value [5]?
The value was “≦70%”.

What about the “content in fill composition … at least 3” value [6] of the same molecule?
The value was “≦54%”.

Source: patent US7829114B2, “Capsules containing aqueous fill compositions stabilized with derivatized cyclodextrin” (CyDex Pharmaceuticals, Inc., priority 2002, dated 2010)
